From US20190353647A1, “NOVEL REAL-TIME MULTIPLEXED, MULTI-COLOR BIOLUMINESCENCE RESONANCE ENERGY TRANSFER ASSAY, APPARATUS, AND USES THEREOF” (Universite de Bordeaux, priority 2016, published 2019)

Target: T1, TRPV1 (Homo sapiens, UniProt Q8NER1)
T1 construct: expressed in transfected cells; host or cells: HEK293T
Experiment: Intramolecular BRET assay, YFP-TRPV1-Luc probe in HEK293T cells
Type: cell-based
Conditions: for Effect on CAPS-induced BRET increase: intramolecular test
From the text: They were referred as YFP and Luc for short in the rest of the manuscript. The cDNA of Luc and YFP were first cloned together using a three-piece ligation in the BamHI/XhoI site of pcDNA3.1(+) (Invitrogen, Carlsbad, Calif., USA), yielding two expression vectors pcDNA3.1 YFP-Luc where YFP was cloned in-fusion at the N-terminal of Luc, and pcDNA3.1 Luc-YFP where Luc was cloned in-fusion at the N-terminal of YFP. Both YFP and Luc were amplified by PCR from the pcDNA3-YFP-EPAC-Luc vector. Luc was cloned either at the N-terminal of YFP as a HindIII-EcoRI fragment (primers used: “Luc_HindIII_ATGN-term sense” and “Luc_no Stop_EcoRI_N-term antisense”) or at the COOH-terminal of YFP as an EcoRI-XhoI fragment (primer used: “Luc_EcoRI_ATG_C-term sense” and “Luc_XhoI_Stop_C-term antisense”). In parallel, YFP was cloned either at the N-terminal of Luc as a HindIII-EcoRI fragment (primers used: “YFP_HindIII_ATG_N-term sense” and “YFP_no Stop_EcoRI_N-term antisense”) or at the COOH-terminal of Luc as a EcoRI-XhoI fragment (primer used: “YFP_EcoRI_ATG_C-term sense” and “YFP_XhoI_Stop_C-term antisense”). The sequence joining Luc and YFP sequence encoded […] NO: 18) as a linker, and contained an AgeI restriction site. The YFP-hTRPV1-Luc expression vector was obtained by subcloning the human TRPV1 cDNA from the pDONR201-hTRPV1 vector (Harvard Medical School PlasmID Repository, clone HsCD00081472) as an EcoRI PCR fragment in the EcoRI site of the vector pcDNA3.1 YFP-Luc (primer used: “hTRPV1_EcoRI_Fus_Sense” and “hTRPV1_EcoRI_Fus_antisense”). The hTRPV1-Luc expression vector was obtained by subcloning the cDNA of hTRPV1 as a HindIII-EcoRI fragment in place of the YFP in the HindIII-EcoRI site of the pcDNA3.1 YFP-Luc vector (primer used: “hTRPV1_HindIII_ATG_Sense” and “hTRPV1_EcoRI_Fus_antisense”). The Luc-hTRPV3 expression vector was obtained by subcloning the cDNA of hTRPV3 (Harvard Medical School PlasmID Repository, clone HsCD00341603) as a AgeI-XhoI fragment in place of the YFP in the AgeI-XhoI sites of the pcDNA3.1 Luc-YFP vector (primer used: “hTRPV3_AgeI_ATG_Sense” and “[…]_XhoI_antisense”). The hTRPV4-Luc expression vector was obtained by subcloning the cDNA of hTRPV4 as a BamHI-AgeI fragment in place of the YFP in the BamHI-AgeI site of the pcDNA3.1 YFP-Luc vector (primer used: “hTRPV4_BamHI_ATG_Sense” and hTRPV4_AgeI_Fus_antisense”). In each case, the sequence joining the cDNA of interest and either Luc or YFP sequence encoded […] NO: 18) as a linker. HEK293T cells were maintained in Dulbecco's modified Eagle's medium-high Glucose (DMEM) (D6429, Sigma) supplemented with 10% fetal bovine serum, 100 units mL-1 penicillin and streptomycin. Twenty-four hours before transfection, cells were seeded at a density of 500,000 cells in 6-well dishes. Transient transfections were performed using polyethylenimine (PEI, linear, Mr 25,000; catalogue number 23966 Polysciences, Inc., Warrington, Pa., USA) with a PEI:DNA ratio of 4:1. […] The amount of transfected DNA was completed to a total of 2 μg with pcDNA3.1 empty vector. After overnight incubation, transfected cells were then detached, resuspended in DMEM w/o red phenol (Ref 21063-029, ThermoFisher scientific, Waltham, Mass., USA) and replated at a density of 10^5 cells per well in 96-well white plates with clear bottoms (Greiner Bio one, Courtaboeuf, France) pre-treated with D-polylysine (Sigma) for reading with the Tristar2 luminometer (Berthold Technologies, Bad Wildbad, Germany) or onto 12 mm diameter glass coverslips ([…], Braunschweig, Germany) treated with poly-L-lysine for the reading with the SpectraPro 2300i spectrometer (Acton Optics, Acton, Mass., USA). Cells were left in culture for 24 h before being processed for the BRET assay.

[1] = temperature rise from 25 to 42° C.

T1 sequence (Q8NER1 whole entry): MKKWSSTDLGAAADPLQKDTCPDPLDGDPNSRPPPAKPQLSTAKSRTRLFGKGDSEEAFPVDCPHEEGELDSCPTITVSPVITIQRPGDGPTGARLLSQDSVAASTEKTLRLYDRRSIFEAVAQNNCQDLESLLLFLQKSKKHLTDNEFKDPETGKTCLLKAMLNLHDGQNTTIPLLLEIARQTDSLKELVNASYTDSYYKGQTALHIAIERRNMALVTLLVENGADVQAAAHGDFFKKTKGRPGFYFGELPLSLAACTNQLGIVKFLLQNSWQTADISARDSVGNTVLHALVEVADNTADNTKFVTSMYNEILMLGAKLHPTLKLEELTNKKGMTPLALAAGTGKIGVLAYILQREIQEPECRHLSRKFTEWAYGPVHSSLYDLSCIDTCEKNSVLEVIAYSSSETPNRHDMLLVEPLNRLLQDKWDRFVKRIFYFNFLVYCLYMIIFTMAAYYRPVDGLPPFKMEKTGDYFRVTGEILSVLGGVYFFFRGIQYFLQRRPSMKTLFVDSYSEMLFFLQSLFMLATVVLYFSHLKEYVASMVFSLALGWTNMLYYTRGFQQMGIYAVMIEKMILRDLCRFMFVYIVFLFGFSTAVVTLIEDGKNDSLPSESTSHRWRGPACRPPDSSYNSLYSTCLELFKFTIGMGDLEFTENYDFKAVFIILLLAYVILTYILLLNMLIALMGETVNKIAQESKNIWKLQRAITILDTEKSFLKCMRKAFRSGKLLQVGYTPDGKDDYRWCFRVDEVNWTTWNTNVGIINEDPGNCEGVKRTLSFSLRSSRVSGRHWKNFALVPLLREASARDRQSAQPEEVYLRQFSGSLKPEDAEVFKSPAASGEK

For `CC(=O)Nc1nc2c(Oc3cc(-c4ccc(C(F)(F)F)cc4)ncn3)cccc2s1` [AMG517], the “Effect on CAPS-induced BRET increase” value was “inhibited”.

In the case of `COc1cc(CNC(=O)CCCC/C=C/C(C)C)ccc1O` [CAPS, Capsaicin], the “Change of basal BRET signal” value is reported as “increased with a first order kinetic”, the “Change in CAPS potency on temperature rise” value [1] is reported as “leftward shift” and the “Change in maximal efficacy on temperature rise” value [1] is reported as “increase”.

`Oc1cc2c(cc1O)CN(C(=S)NCCc1ccc(Cl)cc1)CCC2` [CPZ, Capsazepine] was tested, and the “Temperature-dependent behaviour of the probe after preincubation” value (heating 25 to 50° C.) was “completely modified the temperature-dependent behaviour” and the “Effect on CAPS-induced BRET increase” value was “inhibited”.
